Source: patent US6461997B1, “Triazole sulfones having herbicidal activity” (Monsanto Technology LLC, priority 1999, dated 2002)

How the values were obtained:
[1] = system: AGSST (creeping bentgrass); experiment: Pre-emergence herbicidal activity, cool season; type: in vivo, Agrostis stolonifera; conditions: GR80 = lowest tested rate (300, 100, 30, 10 g/ha) with 80% or greater inhibition; approx. 14 days after treating; 18/13° C.
Protocol: (§1) Tables 5 to 8 summarize results of tests conducted as described below to determine the pre-emergence herbicidal activity, in the form of a GR80 value, of illustrative compounds of this invention. […] Compounds of the invention were typically applied at rates of 300, 100, 30, and 10 g/ha. Where herbicidal activity was evident but 80% inhibition was not achieved at the highest rate tested, an asterisk (*) is shown in the following tables.
(§2) The pre-emergence tests were conducted by the following procedure. Topsoil was sieved to pass through a 1.27 cm screen. Fertilizer was added to the topsoil and the mixture was then sterilized by heating. The topsoil mixture was placed in a pot and compacted to a depth of 1.0 to 1.25 cm from the top of the pot. Seeds of each of several monocotyledonous and dicotyledonous annual plant species were placed on top of the soil. Additional soil was subsequently placed over the seeds to level-fill the pot. A known amount of each test compound dissolved or suspended in an appropriate organic solvent was diluted with a 50:50 mix of acetone and water and applied to the surface of the soil. After treatment the plants were placed in a greenhouse where they received 0.64 cm of overhead irrigation. All subsequent watering consisted of a light overhead mist and/or subirrigation as needed for germination and growth. Tables 5 and 6 below relate to warm season plant species which were placed after pre-emergence treatment in a greenhouse with a 30/21° C. day/night temperature regime. Tables 7 and 8 below relates to cool season plant species placed after pre-emergence treatment in a greenhouse or growth chamber with an 18/13° C. day/night temperature regime.
(§3) Approximately 14 days after planting and treating, the plants were observed and herbicidal efficacy recorded as percent inhibition by comparison with untreated plants.
(§4) The plant species usually regarded as weeds which were utilized in the tests are identified in the tables below according to the following legend, in which “d” indicates a dicotyledonous species and “m” a monocotyledonous species. All monocotyledonous species included in the tests herein are grasses.

[2] = system: PANMI (wild proso millet); experiment: Pre-emergence herbicidal activity, warm season; type: in vivo, Panicum miliaceum; conditions: GR80 = lowest tested rate (300, 100, 30, 10 g/ha) with 80% or greater inhibition; approx. 14 days after treating; 30/21° C.
Protocol: as §1, §2, §3, §4

[3] = system: GALAP (catchweed bedstraw); experiment: Pre-emergence herbicidal activity, cool season; type: in vivo, Galium aparine; conditions: lowest tested rate with 80% or greater inhibition; rates 300, 100, 30, 10 g/ha; about 14 days
Protocol: as §1, §2, §3, §4

SOLNI (black nightshade) = experiment: Pre-emergence herbicidal activity, warm season; type: in vivo, Solanum nigrum; conditions: GR80 = lowest tested rate (300, 100, 30, 10 g/ha) with 80% or greater inhibition; approx. 14 days after treating; 30/21° C.
Protocol: as §1, §2, §3, §4

POLCO (wild buckwheat) = experiment: Pre-emergence herbicidal activity, cool season; type: in vivo, Polygonum convolvulus; conditions: lowest tested rate with 80% or greater inhibition; rates 300, 100, 30, 10 g/ha; about 14 days
Protocol: as §1, §2, §3, §4

[4] = system: CHEAL (common lambsquarters); experiment: Pre-emergence herbicidal activity, warm season; type: in vivo, Chenopodium album; conditions: GR80 = lowest tested rate (300, 100, 30, 10 g/ha) with 80% or greater inhibition; approx. 14 days after treating; 30/21° C.
Protocol: as §1, §2, §3, §4

[5] = system: LAMPU (purple deadnettle); experiment: Pre-emergence herbicidal activity, cool season; type: in vivo, Lamium purpureum; conditions: lowest tested rate with 80% or greater inhibition; rates 300, 100, 30, 10 g/ha; about 14 days
Protocol: as §1, §2, §3, §4

SETVI (green foxtail) = experiment: Pre-emergence herbicidal activity, cool season; type: in vivo, Setaria viridis; conditions: GR80 = lowest tested rate (300, 100, 30, 10 g/ha) with 80% or greater inhibition; approx. 14 days after treating; 18/13° C.
Protocol: as §1, §2, §3, §4

[6] = system: VERPE (creeping speedwell); experiment: Pre-emergence herbicidal activity, cool season; type: in vivo, Veronica persicaria; conditions: lowest tested rate with 80% or greater inhibition; rates 300, 100, 30, 10 g/ha; about 14 days
Protocol: as §1, §2, §3, §4

SETFA (giant foxtail) = experiment: Pre-emergence herbicidal activity, warm season; type: in vivo, Setaria faberi; conditions: GR80 = lowest tested rate (300, 100, 30, 10 g/ha) with 80% or greater inhibition; approx. 14 days after treating; 30/21° C.
Protocol: as §1, §2, §3, §4

POROL (common purslane) = experiment: Pre-emergence herbicidal activity, warm season; type: in vivo, Portulaca oleracea; conditions: GR80 = lowest tested rate (300, 100, 30, 10 g/ha) with 80% or greater inhibition; approx. 14 days after treating; 30/21° C.
Protocol: as §1, §2, §3, §4

[7] = system: CIRAR (canada thistle (seedling)); experiment: Pre-emergence herbicidal activity, warm season; type: in vivo, Cirsium arvense; conditions: GR80 = lowest tested rate (300, 100, 30, 10 g/ha) with 80% or greater inhibition; approx. 14 days after treating; 30/21° C.
Protocol: as §1, §2, §3, §4

SASKR (russian thistle) = experiment: Pre-emergence herbicidal activity, cool season; type: in vivo, Salsola kali; conditions: lowest tested rate with 80% or greater inhibition; rates 300, 100, 30, 10 g/ha; about 14 days
Protocol: as §1, §2, §3, §4

STEME (common chickweed) = experiment: Pre-emergence herbicidal activity, cool season; type: in vivo, Stellaria media; conditions: lowest tested rate with 80% or greater inhibition; rates 300, 100, 30, 10 g/ha; about 14 days
Protocol: as §1, §2, §3, §4

DIGSA (large crabgrass) = experiment: Pre-emergence herbicidal activity, warm season; type: in vivo, Digitaria sanguinalis; conditions: GR80 = lowest tested rate (300, 100, 30, 10 g/ha) with 80% or greater inhibition; approx. 14 days after treating; 30/21° C.
Protocol: as §1, §2, §3, §4

SINAR (wild mustard) = experiment: Pre-emergence herbicidal activity, cool season; type: in vivo, Sinapis arvensis; conditions: lowest tested rate with 80% or greater inhibition; rates 300, 100, 30, 10 g/ha; about 14 days
Protocol: as §1, §2, §3, §4

ALOMY (blackgrass) = experiment: Pre-emergence herbicidal activity, cool season; type: in vivo, Alopecurus myosuroides; conditions: GR80 = lowest tested rate (300, 100, 30, 10 g/ha) with 80% or greater inhibition; approx. 14 days after treating; 18/13° C.
Protocol: as §1, §2, §3, §4

[8] = system: SORHA (johnsongrass (seedling)); experiment: Pre-emergence herbicidal activity, warm season; type: in vivo, Sorghum halepense; conditions: GR80 = lowest tested rate (300, 100, 30, 10 g/ha) with 80% or greater inhibition; approx. 14 days after treating; 30/21° C.
Protocol: as §1, §2, §3, §4

AMARE (redroot pigweed) = experiment: Pre-emergence herbicidal activity, warm season; type: in vivo, Amaranthus retroflexus; conditions: GR80 = lowest tested rate (300, 100, 30, 10 g/ha) with 80% or greater inhibition; approx. 14 days after treating; 30/21° C.
Protocol: as §1, §2, §3, §4

SORVU (shattercane) = experiment: Pre-emergence herbicidal activity, warm season; type: in vivo, Sorghum vulgare; conditions: GR80 = lowest tested rate (300, 100, 30, 10 g/ha) with 80% or greater inhibition; approx. 14 days after treating; 30/21° C.
Protocol: as §1, §2, §3, §4

ECHCG (barnyardgrass) = experiment: Pre-emergence herbicidal activity, warm season; type: in vivo, Echinochloa crus-galli; conditions: GR80 = lowest tested rate (300, 100, 30, 10 g/ha) with 80% or greater inhibition; approx. 14 days after treating; 30/21° C.
Protocol: as §1, §2, §3, §4

[9] = system: BRAPP (broadleaf signalgrass); experiment: Pre-emergence herbicidal activity, warm season; type: in vivo, Brachiaria platyphylla; conditions: GR80 = lowest tested rate (300, 100, 30, 10 g/ha) with 80% or greater inhibition; approx. 14 days after treating; 30/21° C.
Protocol: as §1, §2, §3, §4

DATST (jimsonweed) = experiment: Pre-emergence herbicidal activity, warm season; type: in vivo, Datura stramonium; conditions: GR80 = lowest tested rate (300, 100, 30, 10 g/ha) with 80% or greater inhibition; approx. 14 days after treating; 30/21° C.
Protocol: as §1, §2, §3, §4

Row | Compound | Pre-emergence activity (GR80) AGSST [1] [g/ha] | Pre-emergence activity (GR80) PANMI [2] [g/ha] | Pre-emergence activity GR80, GALAP [3] | Pre-emergence activity (GR80) SOLNI (SOLNI (black nightshade)) [g/ha] | Pre-emergence activity GR80, POLCO (POLCO (wild buckwheat)) | Pre-emergence activity (GR80) CHEAL [4] [g/ha] | Pre-emergence activity GR80, LAMPU [5] | Pre-emergence activity (GR80) SETVI (SETVI (green foxtail)) [g/ha] | Pre-emergence activity GR80, VERPE [6] | Pre-emergence activity (GR80) SETFA (SETFA (giant foxtail)) [g/ha] | Pre-emergence activity (GR80) POROL (POROL (common purslane)) [g/ha] | Pre-emergence activity (GR80) CIRAR [7] [g/ha] | Pre-emergence activity GR80, SASKR (SASKR (russian thistle)) | Pre-emergence activity GR80, STEME (STEME (common chickweed)) | Pre-emergence activity (GR80) DIGSA (DIGSA (large crabgrass)) [g/ha] | Pre-emergence activity GR80, SINAR (SINAR (wild mustard)) | also measured
1 | CCN(CC)C(=S)n1cnc(S(=O)(=O)C(F)(F)C(F)F)n1 [Example 70] | 300 | 300 | [empty] | 300 | 300 g/ha | 300 | [empty] | 300 | [empty] | 300 | 300 | 300 | 300 g/ha | [empty] | 300 | 300 g/ha | 
2 | CCCN(CC)C(=O)n1cnc(S(=O)(=O)C(F)(F)Cl)n1 [Example 87] | 100 | 30 | 300 g/ha | 100 | [empty] | 300 | 100 g/ha | 100 | 100 g/ha | 300 | 100 | 300 | [empty] | [empty] | 300 | [empty] | Pre-emergence activity (GR80) ALOMY (ALOMY (blackgrass)): 100 g/ha; Pre-emergence activity (GR80) SORHA [8]: 100 g/ha; Pre-emergence activity (GR80) AMARE (AMARE (redroot pigweed)): 300 g/ha; Pre-emergence activity (GR80) SORVU (SORVU (shattercane)): 300 g/ha; Pre-emergence activity (GR80) ECHCG (ECHCG (barnyardgrass)): 100 g/ha; Pre-emergence activity (GR80) BRAPP [9]: 300 g/ha
3 | O=C(N1CCOCC1)n1cnc(S(=O)(=O)C(F)(F)Cl)n1 [Example 84] |  |  | [empty] |  | 300 g/ha |  | 300 g/ha |  | [empty] |  |  |  | [empty] | [empty] |  | [empty] | Pre-emergence activity (GR80) DATST (DATST (jimsonweed)): 300 g/ha
